System: Eastern Subterranean Termite (Reticulitermes flavipes)
Assay: Eastern subterranean termite filter paper assay
Format: in vivo
Method: Activity of Compound 2 was evaluated for its activity on Eastern subterranean termite. Technical material of the test compound was formulated in acetone on a wt/wt basis to deliver 1000, 500, 200, 50, 12.5, 3.12 and 0.78 ppm to 42.5 mm Whatman No. 1 filter papers per 200 ul of pipetted solution. Each test concentration was applied to six filter papers (6 reps). Six acetone-only control units and six DI water-only control units were also prepared. The filter papers were dried overnight in the fume hood before they were placed into 60×15 mm Fisher Brand plastic Petri dishes. A volume of 200 ul DI water was pipetted onto each filter paper at the time of test set-up, just prior to infesting with termites. Ten worker termites were added to each Petri dish and covered. The infested Petri dishes were put in the laboratory Conviron at 28° C. and 60% RH. Termite mortality was recorded at 1, 2, 4, 7, and 10 days after infestation (DAI). Throughout the duration of the test, an average of 150 ul of DI water was added daily to the filter papers to retain moisture.

Q: With `CC(c1ccc(C(F)(F)F)nc1)S(C)(=O)=NC#N` (centres unmarked) [Compound 2, [1-(6-trifluoromethylpyridin-3-yl)ethyl](methyl)-oxido-λ^4-sulfanylidenecyanamide] as the molecule, how does the mortality at 0.78 ppm (1 DAI) read?
A: The mortality at 0.78 ppm was 7%.

Q: And the mortality at 0.78 ppm (2 DAI)?
A: Its mortality at 0.78 ppm is 17%.

Q: And the mortality at 0.78 ppm (4 DAI)?
A: Its mortality at 0.78 ppm is 58%.

Q: What about the mortality at 0.78 ppm (7 DAI) of the same molecule?
A: Its mortality at 0.78 ppm is 73%.

Q: And the mortality at 0.78 ppm (10 DAI)?
A: Its mortality at 0.78 ppm is 80%.

Q: And the mortality at 3.13 ppm (1 DAI)?
A: Its mortality at 3.13 ppm is 25%.

Q: What about the mortality at 3.13 ppm (2 DAI) of the same molecule?
A: The mortality at 3.13 ppm was 48%.

Q: And the mortality at 3.13 ppm (4 DAI)?
A: The mortality at 3.13 ppm was 67%.

Q: And the mortality at 3.13 ppm (7 DAI)?
A: Its mortality at 3.13 ppm is 83%.

Q: What about the mortality at 3.13 ppm (10 DAI) of the same molecule?
A: Its mortality at 3.13 ppm is 87%.

Q: And the mortality at 12.5 ppm (1 DAI)?
A: Its mortality at 12.5 ppm is 48%.

Q: What about the mortality at 12.5 ppm (2 DAI) of the same molecule?
A: Its mortality at 12.5 ppm is 67%.

Q: And the mortality at 12.5 ppm (4 DAI)?
A: The mortality at 12.5 ppm was 90%.

Q: What about the mortality at 12.5 ppm (7 DAI) of the same molecule?
A: The mortality at 12.5 ppm was 100%.

Q: What about the mortality at 12.5 ppm (10 DAI) of the same molecule?
A: The mortality at 12.5 ppm was 100%.

Q: What about the mortality at 50 ppm (1 DAI) of the same molecule?
A: Its mortality at 50 ppm is 55%.

Q: What about the mortality at 50 ppm (2 DAI) of the same molecule?
A: Its mortality at 50 ppm is 72%.

Q: What about the mortality at 50 ppm (4 DAI) of the same molecule?
A: The mortality at 50 ppm was 98%.

Q: What about the mortality at 50 ppm (7 DAI) of the same molecule?
A: The mortality at 50 ppm was 100%.

Q: What about the mortality at 50 ppm (10 DAI) of the same molecule?
A: Its mortality at 50 ppm is 100%.

Q: What about the mortality at 200 ppm (1 DAI) of the same molecule?
A: Its mortality at 200 ppm is 55%.

Q: What about the mortality at 200 ppm (2 DAI) of the same molecule?
A: Its mortality at 200 ppm is 72%.

Q: And the mortality at 200 ppm (4 DAI)?
A: Its mortality at 200 ppm is 80%.

Q: And the mortality at 200 ppm (7 DAI)?
A: The mortality at 200 ppm was 100%.

Q: And the mortality at 200 ppm (10 DAI)?
A: Its mortality at 200 ppm is 100%.

Q: And the mortality at 500 ppm (1 DAI)?
A: The mortality at 500 ppm was 63%.

Q: And the mortality at 500 ppm (2 DAI)?
A: The mortality at 500 ppm was 82%.

Q: What about the mortality at 500 ppm (4 DAI) of the same molecule?
A: The mortality at 500 ppm was 98%.

Q: And the mortality at 500 ppm (7 DAI)?
A: The mortality at 500 ppm was 100%.

Q: What about the mortality at 500 ppm (10 DAI) of the same molecule?
A: The mortality at 500 ppm was 100%.

Q: What about the mortality at 1000 ppm (1 DAI) of the same molecule?
A: The mortality at 1000 ppm was 87%.

Q: And the mortality at 1000 ppm (2 DAI)?
A: Its mortality at 1000 ppm is 90%.

Q: What about the mortality at 1000 ppm (4 DAI) of the same molecule?
A: Its mortality at 1000 ppm is 100%.

Q: What about the mortality at 1000 ppm (7 DAI) of the same molecule?
A: The mortality at 1000 ppm was 100%.

Q: What about the mortality at 1000 ppm (10 DAI) of the same molecule?
A: The mortality at 1000 ppm was 100%.

Source: patent US8193364B2, “Insecticidal N-substituted (6-haloalkylpyridin-3-yl)-alkyl sulfoximines” (Dow AgroSciences, LLC., priority 2006, dated 2012)
